The values below come from US6780854B2, “Orally active androgens” (Akzo Nobel NV, priority 1999, dated 2004).

The nature of series [1]: t1/2 after incubation with human hepatocytes (metabolic stability). It is filed as in vitro ADME. Particulars: male, cryopreserved human hepatocytes in suspension; 10 nM compound; cryopreserved human hepatocyte suspension, 37° C.; incubations stopped after 0.5, 1 and 3 h; LC-MS/MS. Here is the method: Determination of t1′2 of Androgens of the Invention after Incubation with Human Hepatocytes
The half-life of a compound as a result of contact with human hepatocytes holds as a reliable indication of metabolic stability. As it is well known that the absorption of this class of steroids is high, this assay provides an in vitro model for oral activity in humans.
Hepatocytes collected from healthy young (25-45 year) male organ donors were cryo preserved in liquid nitrogen and kept there until use. They were thawed at 37° C. in a waterbath, placed immediately on ice, washed twice in one volume of cold (4° C.) incubation medium [William's medium E (without phenol red) with Glutamax I®, gentamicin 50 μg/ml, insulin 1 μM, hydrocortisone hemisuccinate 10 μM, fetal calf serum 0% (v/v)], counted and the viability checked by Trypan blue exclusion. Cells were incubated as suspensions in 12-wells (non-coated) plates at a nominal density of 0.5×10^6 cells/well in 1.5 ml medium at 37° C. with an air/O2/CO2 mixture (55/40/5). The plates were set on an orbital shaker at approximately 10 rpm.
The hepatocytes were incubated with 10 nM final concentration of the compound to be tested. The incubations were stopped after 0.5, 1 and 3 h by pipetting the whole incubation mixture into a glass tube and adding one volume of acetone on ice. The acetone was dried under a nitrogen flow at room temperature, the volume adjusted to 1.5 ml and the tubes were centrifuged at 4° C. at 10.000×g for 30 min. The de-proteinized supernatants were collected for LC-MS/MS analysis.

The test system of series [2] is serum LH. Put plainly: LH suppression assay: determination of oral activity. The following applies: Rattus norvegicus; mature male castrated rats; po daily for 4 days in arachis oil; serum LH 3 hours after last oral dose; read-out: ED50 (po) required to suppress serum LH for 50% (±10%). It counts as in vivo. Here is the method:
The LH Suppression Assay: Determination of Oral Activity
The in vivo potency (po) of several androgens of the invention was determined in a mature male castrated rat model, in comparison wih Segaloff compound. In this model serum LH is high (50× fold higher than with intact rats, due to the absence of the negative feedback of testicular testosterone). These rats are po treated for 4 days daily with a given compound of the invention in a suspension fluid of arachis oil. Before dosing and 3 hours after the last oral dose blood is collected via tail vene and in the serum LH is determined. Potency (po) of the androgens (ED50) are expressed as the amount (mg/kg) of androgen which suppresses serum LH for 50% (±10%).
The rat LH Time-Resolved Immuno Fluorometric Assay (TR-IFMA) has been developed in house using home made reagents, a monoclonal catching antibody directed against the β-subunit of human chorion gonadotrophin (hCG, which cross react with rat β-subunit) and a biotin labelled detecting antibody (rabbit polyclonal antibody directed against the alfa-subunit of recombinant rat LH). Recombinant rat LH was prepared according to the methods described by Hakola et al (1997). In this two-site-IFMA, only intact rat LH is determined by a final incubation with streptavidin-europium. The detection in the IFMA is based on fluorescence of the lanthanide europium during a relative long exitation period. The concentration range of rat LH standard is 0.001-10 ng/ml, for optimal accuracy measurements of serum LH serum samples were diluted 8-times with assay buffer [Hakola, K., Boogaart, P. V., Mulders, J., de Leeuw, R., Schoonen, W., Heyst, J. V., Swolfs, A., Casteren, J. V., Huhtaniemi, I., and Kloosterboer, H. J., Recombinant rat luteinizing hormone; production by Chinese hamster ovary cells, purification and functional characterization, Molecular & Cellular Endocrinology 128, 47 (1997)].

In general, half-life refers to how long it takes for the measured level to halve. A lower half-life goes with fast loss. For orientation: ED50 means the dose at which the effect has come halfway, by size or by number of responders. On to `CC[C@@H]1CC2=CC(=O)CC[C@@H]2[C@H]2CC[C@@]3(C)C(=CC[C@@H]3O)[C@H]12` [Example 1a, (7α,17β)-7-Ethyl-17-hydroxyestra-4,14-dien-3-one], for which the half-life at 10 nM in series [1] was 2.62 h. Besides, the ED50 in series [2] is 0.2 mg/kg.

Take `C=C[C@@H]1CC2=CC(=O)CC[C@@H]2[C@H]2CC[C@@]3(C)C(=CC[C@@H]3O)[C@@H]21` [Example 2, (7α,17β)-7-Ethenyl-17-hydroxyestra-4,14-dien-3-one]: the half-life at 10 nM in series [1] was 0.667 h. Moreover, the ED50 in series [2] was determined as 0.5 mg/kg.

`C[C@@H]1CC2=CC(=O)CC[C@@H]2[C@H]2CC[C@@]3(C)C(=CC[C@@H]3O)[C@@H]21` [Segaloff compound, (7α,17β)-7-Methyl-17-hydroxyestra-4,14-dien-3-one, reference compound] registered a half-life at 10 nM in series [1] of 1 h. In series [2], the 50% effective dose (ED50) worked out at 5 mg/kg.
